≈ marks a conversion by molar mass, not a printed value. Like-named read-outs stand apart in the source and are kept apart here.
What was measured:
[1] = test system: Escherichia coli HA2 Leo strain; assay: Antibacterial activity (Tables A and B), 50% inhibition; type: cell-based; conditions: HA2LEOSTRAIN, Table A
Source text: (§1) This effect is quite unexpected, since of the hitherto known derivatives of 6-aminopenicillanic acid only those being substituted with an acyl group at the 6-amino group have shown an antibacterial effect. The effect on penicillin-sensitive, gram-positive bacteria is less than that of benzylpenicillin and of α-aminobenzylpenicillin, whereas the effect on gram-negative bacilli, e.g. coli and salmonella species, is on a many times higher level than that of e.g. benzylpenicillin and α-aminobenzylpenicillin. […] IC50 means the concentration required for 50% inhibition.
In Table B below the activity of a number of the compounds of the invention against the Escherichia coli HA2 Leo strain of Table A is shown:
The compounds of Table B were obtained by enzymatic hydrolysis of the corresponding esters described in the Examples mentioned by treatment with a 20 per cent mouse serum at 37°C in 90 minutes.

[2] = test system: Escherichia Coli HA2; assay: In vivo experiment: survival of mice infected with Escherichia Coli HA2 (Table C); conditions: 10 mice
Experimental: The great difference between the spectrum of the hereinbefore mentioned FL 1060 and those of G-penicillin and ampicillin indicates a difference in the mode of action. This is also supported by in vivo experiments, in which mice (weight 27 to 30 g) were infected with 0.5 ml of a 24 hour old NIH bouillon culture of Escherichia Coli HA2 1000 times diluted in gastric mucin (5%) (Orthana). After half an hour and again after 61/2 hours a single dose was given subcutaneously in 0.5 ml. of a 0.9 per cent sodium chloride solution. After 24 hours the numbers of surviving mice were registered.
All surviving mice were still alive after 4 days, when observation of them was terminated.

[3] = test system: Salmonella abortivoequina; assay: Antibacterial spectrum (Table A), 50% inhibition; type: cell-based
Source text: as §1

[4] = test system: Shigella flexneri; assay: Antibacterial spectrum (Table A), 50% inhibition; type: cell-based
Source text: as §1

[5] = test system: Erysipelothrix insidiosa FU; assay: Antibacterial spectrum (Table A), 50% inhibition; type: cell-based; conditions: Erysipelothrix rhusiopathiae
Source text: as §1

[6] = test system: Salmonella hirschfeldii; assay: Antibacterial spectrum (Table A), 50% inhibition; type: cell-based
Source text: as §1

[7] = test system: Bacillus subtilis KA2; assay: Antibacterial spectrum (Table A), 50% inhibition; type: cell-based
Source text: as §1

[8] = test system: Escherichia coli, average of 36 strains; assay: Antibacterial spectrum (Table A), 50% inhibition; type: cell-based
Source text: as §1

[9] = test system: Salmonella chlerasuis; assay: Antibacterial spectrum (Table A), 50% inhibition; type: cell-based
Source text: as §1

[10] = test system: Salmonella schottmuelleri; assay: Antibacterial spectrum (Table A), 50% inhibition; type: cell-based
Source text: as §1

[11] = test system: Salmonella enteritidis; assay: Antibacterial spectrum (Table A), 50% inhibition; type: cell-based; conditions: Salmonella enterica
Source text: as §1

[12] = test system: Proteus, average of 8 strains; assay: Antibacterial spectrum (Table A), 50% inhibition; type: cell-based
Source text: as §1

[13] = test system: Staph. aureus, penicillinase producing; assay: Antibacterial spectrum (Table A), 50% inhibition; type: cell-based; conditions: Staphylococcus aureus
Source text: as §1

[14] = test system: Shigella dysenteriae; assay: Antibacterial spectrum (Table A), 50% inhibition; type: cell-based
Source text: as §1

[15] = test system: Streptococcus faecalis E13; assay: Antibacterial spectrum (Table A), 50% inhibition; type: cell-based; conditions: Enterococcus faecalis
Source text: as §1

[16] = test system: Alcaligenes faecalis; assay: Antibacterial spectrum (Table A), 50% inhibition; type: cell-based
Source text: as §1

[17] = test system: Klebsiella pneumoniae, average of 12 strains; assay: Antibacterial spectrum (Table A), 50% inhibition; type: cell-based
Source text: as §1

[18] = test system: Listeria Monocytogenes FT; assay: Antibacterial spectrum (Table A), 50% inhibition; type: cell-based
Source text: as §1

[19] = test system: Corynebacterium xerosis FF; assay: Antibacterial spectrum (Table A), 50% inhibition; type: cell-based
Source text: as §1

[20] = test system: Pseudomonas aeruginosa; assay: Antibacterial spectrum (Table A), 50% inhibition; type: cell-based
Source text: as §1

[21] = test system: Streptococcus pyogenes; assay: Antibacterial spectrum (Table A), 50% inhibition; type: cell-based
Source text: as §1

[22] = test system: Salmonella paratyphi A; assay: Antibacterial spectrum (Table A), 50% inhibition; type: cell-based; conditions: Salmonella enterica
Source text: as §1

[23] = test system: Diplococcus pneumoniae EA; assay: Antibacterial spectrum (Table A), 50% inhibition; type: cell-based; conditions: Streptococcus pneumoniae
Source text: as §1

[24] = test system: Staph. aureus, penicillin sensitive; assay: Antibacterial spectrum (Table A), 50% inhibition; type: cell-based; conditions: Staphylococcus aureus
Source text: as §1

[25] = test system: Salmonella typhimurium; assay: Antibacterial spectrum (Table A), 50% inhibition; type: cell-based; conditions: Salmonella enterica
Source text: as §1

[26] = test system: Bacillus megatherium KD; assay: Antibacterial spectrum (Table A), 50% inhibition; type: cell-based
Source text: as §1

[27] = test system: Vibrio comma; assay: Antibacterial spectrum (Table A), 50% inhibition; type: cell-based; conditions: Vibrio cholerae
Source text: as §1

[28] = test system: Salmonella typhosa; assay: Antibacterial spectrum (Table A), 50% inhibition; type: cell-based; conditions: Salmonella enterica
Source text: as §1

[29] = Solubility in water; type: physicochemical
[30] = Salmonella abortivoequina, read-out: IC50
[31] = Salmonella chlerasuis, read-out: IC50
[32] = Salmonella enteritidis, read-out: IC50
[33] = Proteus, average of 8 strains, read-out: IC50
[34] = Streptococcus faecalis E13, read-out: IC50
[35] = average of 12 strains, read-out: IC50
[36] = Listeria Monocytogenes FT, read-out: IC50
[37] = Diplococcus pneumoniae EA, read-out: IC50
[38] = Salmonella typhimurium, read-out: IC50

SMILES	IC50 [1] [µg/mL]	IC50 [3, 30] [µg/mL]	IC50 [4] [µg/mL]	IC50 [5] [µg/mL]	IC50 [6] [µg/mL]	IC50 ([7]; read-out: IC50) [µg/mL]	IC50 [8] [µg/mL]	IC50 [9, 31] [µg/mL]	IC50 [10] [µg/mL]	IC50 [11, 32] [µg/mL]	IC50 [12, 33] [µg/mL]	IC50 [13] [µg/mL]	IC50 [14] [µg/mL]	IC50 [15, 34] [µg/mL]	IC50 [16] [µg/mL]	IC50 [17, 35] [µg/mL]	IC50 [22] [µg/mL]	IC50 [24] [µg/mL]	IC50 [27] [µg/mL]	IC50 [28] [µg/mL]	further results
CC1(C)S[C@@H]2[C@H](/N=C/N3CCCCCC3)C(=O)N2[C@H]1C(=O)O [FL 1060, 6-[(hexahydro-1H-azepin-1-yl)-methyleneamino]-penicillanic acid, hydrochloric, dihydrate]	0.016	0.04	0.05	20	0.016	5	0.089	0.16	0.063	0.16	0.23	> 100	0.16	> 100	0.63	0.65	0.13	5	0.4	0.079	per cent surviving ([2]; single dose 7.5 μg s.c., given twice, 24 hours): 0 per cent; per cent surviving ([2]; single dose 15 μg s.c., given twice, 24 hours): 0 per cent; per cent surviving ([2]; single dose 30 μg s.c., after half an hour and again after 6 1/2 hours, 24 hours (survivors alive after 4 days)): 50 per cent; IC50 [18, 36]: 50 µg/mL; IC50 ([19]; Corynebacterium xerosis FF, read-out: IC50): 1.6 µg/mL; IC50 ([20]; read-out: IC50): > 100 µg/mL; IC50 ([21]; read-out: IC50): 0.5 µg/mL; IC50 [23, 37]: 3.2 µg/mL; IC50 [25, 38]: 0.063 µg/mL; IC50 ([26]; Bacillus megatherium KD, read-out: IC50): 0.5 µg/mL
CC1(C)S[C@@H]2[C@H](NC(=O)Cc3ccccc3)C(=O)N2[C@H]1C(=O)O [G-Pen., benzylpenicillin]	32 (≈ 95.7 µM)	–	10 (≈ 29.9 µM)	0.025 (≈ 0.0748 µM)	0.13 (≈ 0.389 µM)	–	32 (≈ 95.7 µM)	–	3.2 (≈ 9.57 µM)	–	–	100 (≈ 299 µM)	5 (≈ 15 µM)	–	1.6 (≈ 4.78 µM)	–	3.2 (≈ 9.57 µM)	0.016 (≈ 0.0478 µM)	0.79 (≈ 2.36 µM)	2 (≈ 5.98 µM)	IC50 ([3]; Salmonella): 2.5 µg/mL (≈ 7.48 µM); IC50 [7]: 0.01 µg/mL (≈ 0.0299 µM); IC50 ([9]; Salmonella): 1.6 µg/mL (≈ 4.78 µM); IC50 ([11]; ENTERITIDIS): 2.5 µg/mL (≈ 7.48 µM); IC50 [12]: 5.4 µg/mL (≈ 16.1 µM); IC50 ([15]; E13): 3.2 µg/mL (≈ 9.57 µM); IC50 [17]: 29 µg/mL (≈ 86.7 µM); IC50 ([18]; Listeria monocytogenes): 0.1 µg/mL (≈ 0.299 µM); IC50 ([19]; Corynebacterium xerosis): 0.013 µg/mL (≈ 0.0389 µM); IC50 [20]: > 100 µg/mL; IC50 [21]: 0.008 µg/mL (≈ 0.0239 µM); IC50 [23]: 0.01 µg/mL (≈ 0.0299 µM); IC50 ([25]; TYPHIMURIUM): 2.5 µg/mL (≈ 7.48 µM); IC50 ([26]; Bacillus): 0.016 µg/mL (≈ 0.0478 µM)
CC1(C)S[C@@H]2[C@H](NC(=O)[C@H](N)c3ccccc3)C(=O)N2[C@H]1C(=O)O [Ampicillin, α-aminobenzylpenicillin]	2 (≈ 5.72 µM)	0.25 (≈ 0.715 µM)	0.79 (≈ 2.26 µM)	0.04 (≈ 0.114 µM)	0.079 (≈ 0.226 µM)	0.025 (≈ 0.0715 µM)	2.2 (≈ 6.3 µM)	0.32 (≈ 0.916 µM)	0.63 (≈ 1.8 µM)	0.4 (≈ 1.14 µM)	1.3 (≈ 3.72 µM)	130 (≈ 372 µM)	0.63 (≈ 1.8 µM)	0.79 (≈ 2.26 µM)	0.5 (≈ 1.43 µM)	26 (≈ 74.4 µM)	0.4 (≈ 1.14 µM)	0.025 (≈ 0.0715 µM)	0.4 (≈ 1.14 µM)	0.32 (≈ 0.916 µM)	per cent surviving ([2]; single dose 75 μg s.c., given twice, 24 hours): 0 per cent; per cent surviving ([2]; single dose 150 μg s.c., given twice, 24 hours): 0 per cent; per cent surviving ([2]; single dose 300 μg s.c., given twice, 24 hours (survivors alive after 4 days)): 70 per cent; IC50 [18, 36]: 0.1 µg/mL (≈ 0.286 µM); IC50 ([20]; read-out: IC50): > 100 µg/mL; IC50 ([21]; read-out: IC50): 0.013 µg/mL (≈ 0.0372 µM); IC50 [23, 37]: 0.01 µg/mL (≈ 0.0286 µM); IC50 [25, 38]: 0.5 µg/mL (≈ 1.43 µM)
CC1(C)S[C@@H]2[C@H](N=CN3CCCCCC3)C(=O)N2[C@H]1C(=O)O [Example 6, 6-[(Hexahydro-1H-azepin-1-yl)-methyleneamino]-penicillanic acid]	–	–	–	–	–	–	–	–	–	–	–	–	–	–	–	–	–	–	–	–	solubility [29]: soluble in water
